How the values were obtained:
[1] = tested on: variant 3; experiment: Changes in intracellular Ca2+ concentration in variant 3 gene stably-expressing strain; format: cell-based, human; conditions: variant3/CHO#14-18; A23187 20 μM, positive control
Method: (§1) Strains stably expressing splicing variants of the variant 3 gene were prepared by a method similar to the above-mentioned method using a variant 3 gene-expressing vector.
(§2) To analyze functions of the variant 3 gene, changes in the intracellular calcium (Ca^2+) concentration induced by CCK-8S were examined using a strain stably expressing the variant 3 gene prepared in Example 7. Changes in the intracellular calcium (Ca^2+) concentration were measured by a method similar to the method described in Example 5.
(§3) Cells were seeded in a 96-well plate (a plate with a black wall and a transparent bottom) at a cell count of 3×10^4/100 μL of medium/well and cultured overnight at 37° C. in a 5% CO2 incubator. On the following day, 50 μL of the medium was removed from each well, 50 μL of a loading buffer was added to each well, the mixture was reacted at room temperature for 1 h, so that a fluorescent dye contained in the loading buffer was taken up into the cell. The loading buffer was prepared by a method similar to the method described in Example 5. After reaction, changes over time in the fluorescence intensity after addition of CCK-8S in each well were measured using the FLEX station (Molecular Device) for 40 sec. CCK-8S was used at a final concentration of 10 pM to 1 μM. Furthermore, as a positive control of the assay, A23187 was used at a final concentration of 20 μM.

[2] = target: T1, variant 3 (Homo sapiens, UniProt O60241, DEL364-418); experiment: as above; format: cell-based; conditions: variant 3 stably-expressing strain; CCK-8S 10 pM to 1 μM, figure at 1 nM
T1 construct: a vector expressing each full-length cDNA clone was constructed; expressed in transfected cells; host or cells: CHO-K1 (variant3/CHO#14-18), variant3/pcDNA3.1
T1 sequence (O60241 with tags, fused parts or gaps DEL364-418): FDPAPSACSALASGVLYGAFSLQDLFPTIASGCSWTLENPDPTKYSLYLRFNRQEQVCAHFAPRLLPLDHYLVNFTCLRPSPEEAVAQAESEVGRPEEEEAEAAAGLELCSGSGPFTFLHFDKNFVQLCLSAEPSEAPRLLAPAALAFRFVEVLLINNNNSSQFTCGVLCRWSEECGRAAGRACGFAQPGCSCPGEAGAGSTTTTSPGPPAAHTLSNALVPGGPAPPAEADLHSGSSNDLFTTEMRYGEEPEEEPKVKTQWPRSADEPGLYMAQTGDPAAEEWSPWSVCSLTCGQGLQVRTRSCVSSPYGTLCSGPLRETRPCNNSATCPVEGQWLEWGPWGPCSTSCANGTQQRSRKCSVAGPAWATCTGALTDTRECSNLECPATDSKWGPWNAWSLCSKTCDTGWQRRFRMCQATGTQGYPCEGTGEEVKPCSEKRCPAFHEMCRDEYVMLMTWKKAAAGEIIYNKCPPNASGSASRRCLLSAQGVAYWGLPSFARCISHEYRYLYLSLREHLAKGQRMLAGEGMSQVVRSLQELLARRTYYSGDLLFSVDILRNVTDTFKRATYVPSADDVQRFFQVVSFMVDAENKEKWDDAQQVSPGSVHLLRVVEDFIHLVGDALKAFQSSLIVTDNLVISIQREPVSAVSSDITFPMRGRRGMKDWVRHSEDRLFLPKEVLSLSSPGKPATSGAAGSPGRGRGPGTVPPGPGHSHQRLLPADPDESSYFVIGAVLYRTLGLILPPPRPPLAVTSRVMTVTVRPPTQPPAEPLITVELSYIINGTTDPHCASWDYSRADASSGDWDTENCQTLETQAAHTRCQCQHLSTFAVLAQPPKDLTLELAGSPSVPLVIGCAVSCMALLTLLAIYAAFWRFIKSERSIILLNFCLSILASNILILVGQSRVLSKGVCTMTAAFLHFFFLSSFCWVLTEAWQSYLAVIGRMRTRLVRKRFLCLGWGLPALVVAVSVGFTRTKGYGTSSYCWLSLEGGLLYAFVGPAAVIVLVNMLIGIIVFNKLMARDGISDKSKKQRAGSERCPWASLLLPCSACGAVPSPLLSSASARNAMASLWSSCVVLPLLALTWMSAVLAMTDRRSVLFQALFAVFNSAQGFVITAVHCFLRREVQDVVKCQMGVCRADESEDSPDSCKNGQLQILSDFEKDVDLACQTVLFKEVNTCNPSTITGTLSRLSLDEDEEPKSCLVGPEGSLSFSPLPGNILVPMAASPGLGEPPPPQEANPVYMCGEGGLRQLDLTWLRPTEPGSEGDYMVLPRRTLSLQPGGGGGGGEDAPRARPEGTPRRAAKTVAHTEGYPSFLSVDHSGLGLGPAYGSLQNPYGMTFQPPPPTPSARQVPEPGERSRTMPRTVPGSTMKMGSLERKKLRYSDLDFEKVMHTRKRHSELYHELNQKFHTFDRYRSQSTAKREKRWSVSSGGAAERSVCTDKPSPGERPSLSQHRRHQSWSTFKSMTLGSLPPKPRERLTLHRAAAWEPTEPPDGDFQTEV
Method: as §1, §2, §3

Row | Compound | Change in intracellular Ca2+ concentration (fluorescence intensity) [1] | Change in intracellular Ca2+ concentration after addition of CCK-8S [2]
1 | CNc1ccc2oc(C[C@H]3O[C@@]4(CC[C@H]3C)O[C@H]([C@H](C)C(=O)c3ccc[nH]3)[C@H](C)C[C@H]4C)nc2c1C(=O)O [A23187] | increased | 
2 | cholecystokinin octapeptide sulfated form [CCK-8S] |  | increase

Reference: patent US20100029702A1, “Method For Identification of Compound Having Anti-Anxiety Effect” (priority 2006, published 2010)
